We go through 14 compounds from patent US7923004B2 (priority 2006, dated 2011).

Series [1] deals with replicon resistant to 10 μM Compound #64 vs wild type Huh-7 Luc-ubi-neo/ET replicon. The experiment in a line: Cross resistance of Compound #64 resistant replicon. It counts as cell-based, HCV genotype 1b. The note with it: for EC50 Resistant Replicon/EC50 Wild Type Replicon: replicon resistant to 10 μM Compound #64 vs wild type Huh-7 Luc-ubi-neo/ET replicon. Background: A replicon is a self-replicating genome or part of one, used to study replication in cells.

For series [2], the system named is HCV genotype 1b replicon (Huh-Luc-Neo cells). Briefly: HCV Replicon RNA (Taqman) Assay, genotype 1b. It counts as cell-based. The note with it: Hepatitis C virus, Huh-Luc-Neo cells, genotype 1b, HCV RNA, 72 h, read-out: HCV-1b Replicon Inhibition*, Taqman (EC50).
Series [3] has the same test system. Briefly: HCV Replicon Luciferase Assay. The format is cell-based. The settings on record: Hepatitis C virus, Huh-Luc-Neo cells, genotype 1b, 72 h, read-out: HCV-1b Replicon Inhibition*, Luciferase (EC50).
Series [4] deals with Compound #64 resistant HCV 1b replicon cell lines vs wild type Huh-Luc-Neo replicon. The experiment in a line: EC50 determination (HCV RNA, quantitative PCR) in resistant vs wild type replicon clones. The format is cell-based, HCV genotype 1b. The method, then:
An HCV Replicon cell line (luc-neo/ET) and assay (Lohman et al, Science 1999, 285, 110) was used in the present invention. Specifically the HCV 1b Replicon cell line Huh-Luc-Neo was subjected to resistance selection by growth in culture in the presence of Compound #64 (Table 1) according to methods described by Mo et al., Antimicro. Agents Chemotherapy, 49, 4305-4314, 2005. Huh-Luc-Neo cells were initially subjected to selection with 0.5 μM Compound #64 (Table 1) and selection pressure was increased gradually up to 2 μM COMPOUND #64 (TABLE 1) over a period of 7 to 9 weeks and 5 cell lines derived from individual colonies were isolated and expanded. A specific clone resistant to 2 μM Compound #64 (Table 1) (Clone Comp.64-10R4) was the subjected to further selection pressure at increasing concentrations of Compound #64 (Table 1) and a replicon resistant to 10 μM Compound #64 (Table 1) was isolated (Clone Comp.64-50R4). The wild type Huh-Luc-Neo replicon cell line was cultured in parallel with the selections and characterized in a similar fashion to the resistant clones.
(§1) EC50 determinations were performed with Compound #64 (Table 1) vs. the wild type Huh-Luc-Neo replicon cell line and the 5 resistant replicon cell lines. Resistant and wild type replicons were plated in 96 well plates (5000-7000 cells/well) and treated with compound at varying concentrations (Compound #64 (Table 1)) for 72 hours. Cells were then lysed and RNA was isolated (Qiagen RNA Easy 96 kit) according to the manufacturer's recommendations. HCV RNA levels were then measured and EC50 values were determined by cDNA synthesis and quantitative PCR using HCV specific primers and GAPDH primers as controls (Example 55, Lohman et al, Science 1999, 285, 110). The effect of the compounds on inhibition of cell viability was performed on cells treated in parallel with using the Cell Titre Glo Assay Kit (Promega) according to the manufacturer's recommendations (Example 56). CC50s for the compound vs. the wild type and resistant replicons were determined to be >50 μM.

Series [5] is described as follows: Cell Titre Glo cell viability on wild type and resistant replicons. It counts as cell-based. The note with it: human. The method, then: as §1
The subject of series [6] is HCV Genotype 1b luc-neo/ET replicon with Y2065H mutation in NS5A. Briefly: Luciferase EC50 in Huh7-Lunet cells with luc-neo/ET/Y2065H mutant vs parental luc-neo/ET replicon. It counts as cell-based. The settings on record: transient replicons, 72 h. How it is done:
Resistance of Compound #64 (Table 1) and related pyrazoles was then determined by treating Huh7-Lunet cells (Koutsoudakis et al, J. Virol. 81(2):588-98, 2007) transiently electroporated with RNAs transcribed from either the luc-neo/ET/Y2065H mutant and the parental luc-neo/ET replicons (Blight et al, J. Virol. 77(5):3181-90, 2003). Huh7-Lunet expressing the luc-neo/ET/Y2065H mutant and the parental luc-neo/ET replicons were treated with selected compounds for 72 hours. EC50 and CC50 values were determined as described in the HCV Replicon Luciferase Assay and CellTiter-Glo Cell Viability Assay protocols. […] CC50s for the compound vs. the luc-neo/ETIY2065H mutant and parental luc-neo/ET replicons were determined to be>33 μM.

Series [7] in a line: Cell Titer-Glo Cell Viability Assay, genotype 1b cells. The format is cell-based. The settings on record: human, Huh-Luc-Neo (HCV genotype 1b replicon) cells, HCV genotype 1b assays, read-out: Cytotoxicity* (CC50). How it is done:
(§2) Cell Seeding and Compound Treatment: Huh-Luc-Neo (Genotype 1b) or En5-3/Htat2ANeo (Genotype 1a) cells are seeded at 5000-7000/well in an opaque-walled 96 plate with Growth Medium (DMEM phenol red free+PS+2 mM glutamine; 100 ul/well). The compounds to be tested for inhibition of cell viability are added to the experimental wells so as to generate a dose response curve (8-9 concentrations, 10 μl/well at 10× assay concentration) and the cells are then incubated (5% CO2, 37° C.) for 72 h.
(§3) Reagent Preparation and Assay: After completion of the incubation period the cell viability measurements are made using the Cell Titre Glo Assay (Promega) according to the manufacturer's recommended protocol. Briefly, the CellTiter-Glo Buffer is thawed and equilibrated to room temperature prior to use. The lyophilized CellTiter-Glo Substrate is also equilibrated to room temperature prior to use. 10 ml of CellTiter-Glo Buffer is then transferred to 1 vial of CellTiter-Glo Substrate and mixed gently with a Vortex. 100 μl of CellTiter-Glo Assay reagent (CellTiter-Glo Buffer+CellTiter-Glo Substrate Mixture) is added to each well. The well contents are mixed for 5 min. on an orbital shaker at room temperature to induce cell lysis and the luminescence is then measured using a luminometer.
Background: Cellular ATP, detected with luciferase, serves as a proxy for viable cell number.

Series [8] is described as follows: Cell Titer-Glo Cell Viability Assay, genotype 1a cells. It counts as cell-based. The settings on record: human, En5-3/Htat2ANeo (HCV genotype 1a replicon) cells, HCV-1a assays, read-out: Cytotoxicity* (CC50). The method, then: as §2, §3
The subject of series [9] is HCV genotype 1a replicon (En5-3/Htat2ANeo cells). The experiment in a line: HCV-1a Replicon RNA (Taqman) inhibition assay. It counts as cell-based. The settings on record: Hepatitis C virus, 72 h.

On to `Cc1ccc(O)c(-c2nn(C)cc2C#Cc2ccc(NC(=O)[C@@H]3COCCN3C(=O)[C@H](NC(=O)OC(C)(C)C)c3ccccc3)cc2)c1`, for which, in series [1] (replicon resistant to 10 μM Compound #64), the “cross resistance in Compound #64 resistant replicon” value is recorded as “cross resistant”. Besides, the “EC50 Resistant Replicon/EC50 Wild Type Replicon” value in series [1] turned out to be 7.125.

For `Cc1ccc(O)c(-c2nn(C)cc2C#Cc2ccc(NC(=O)[C@H]3CCCCN3C(=O)C(NC(=O)OC(C)(C)C)c3ccccc3)cc2)c1` (stereo partly shown) [64 (Table 1)], the EC50 in [2] and in [3] was less than 1000 nM throughout. Further, the “EC50 shift, resistant replicon vs wild type replicon” value in series [4] (replicon resistant to 10 μM Compound #64, second NS5A mutation Y2065H) is on record as more than 75 fold. In addition, the “EC50 Resistant Replicon/EC50 Wild Type Replicon” value was 1.5 in series [4] (resistant clone Comp. 64-10R3, resistant conc. 2 μM); 3.48 in [4] (resistant clone Comp. 64-10R4, resistant conc. 2 μM); 2.92 in series [4] (resistant clone Comp. 64-10R5, resistant conc. 2 μM); 2.18 in [4] (resistant clone Comp. 64-10R6, resistant conc. 2 μM); 3 in [4] (resistant clone Comp. 64-10R8, resistant conc. 2 μM); more than 75 in series [4] (resistant clone Comp. 64-50R4, resistant conc. 10 μM). In addition, the CC50 (in general, the concentration giving 50% cytotoxicity) at 72 h in [5] is more than 50000 nM; in series [7], more than 100000 nM. Further, in series [6], the “EC50 Luc-neo-ET-Y2065H/EC50 Luc-neo-ET” value is given as more than 65.

In the case of `Cc1ccc(O)c(-c2nn(C)cc2C#Cc2ccc(NC(=O)[C@@H]3COCCN3C(=O)[C@H](NC(=O)OC(C)(C)C)c3ccccc3)cc2)c1` [Compound 23A], the half-maximal effective concentration (EC50) in [2] (GETYPE1B) and in [3] (GETYPE1B) was less than 1000 nM each time. Further, the “EC50 Luc-neo-ET-Y2065H/EC50 Luc-neo-ET” value in series [6] is recorded as 6. In addition, the half-maximal cytotoxic concentration (CC50) at 72 h in series [7] is more than 100000 nM.

On to `N#CCCn1cc(C#Cc2ccc(NC(=O)[C@@H]3COCCN3C(=O)[C@H](NC(=O)NC3CC3)c3ccccc3)cc2)c(-c2cc(Cl)ccc2O)n1` [Compound 3], for which the CC50 at 72 h in series [8] is more than 33300 nM. Also, the EC50 (usually the concentration at which the effect is half-maximal) in [9] was less than 1000 nM.

In the case of `Cn1cc(C#Cc2ccc(NC(=O)[C@@H]3COCCN3C(=O)[C@H](NC(=O)c3cccs3)c3ccccc3)cc2)c(-c2cc(Cl)ccc2O)n1` [Compound 9], in [8], the 50% cytotoxic concentration (CC50) at 72 h is more than 33300 nM. In series [9], this compound registered an EC50 of less than 1000 nM.

In the case of `N#CCCn1cc(C#Cc2ccc(NC(=O)[C@@H]3COCCN3C(=O)[C@H](NC(=O)c3ccccc3)c3ccccc3)cc2)c(-c2cc(Cl)ccc2O)n1` [Compound 13], the half-maximal cytotoxic concentration (CC50) at 72 h in series [8] was more than 33300 nM. Further, in [9], the concentration for a half-maximal effect (EC50) was less than 1000 nM.

In the case of `Cn1cc(C#Cc2ccc(NC(=O)[C@@H]3COCCN3C(=O)[C@H](NC(=O)C3CC3)c3ccccc3)cc2)c(-c2cc(Cl)ccc2O)n1` [Compound 52], the half-maximal effective concentration (EC50) in [2] and in [3] was less than 1000 nM throughout. Moreover, in series [6], the “EC50 Luc-neo-ET-Y2065H/EC50 Luc-neo-ET” value is recorded as 79. Besides, in series [7], the cytotoxic concentration (CC50) at 72 h lay in the range of 10000 to 100000 nM.

As for `CC(C)n1cc(C#Cc2ccc(NC(=O)[C@@H]3COCCN3C(=O)[C@H](NC(=O)NC(C)(C)C)c3ccccc3)cc2)c(-c2cc(Cl)ccc2O)n1` [Compound 11], the CC50 at 72 h in [8] is more than 33300 nM. In series [9], this compound yielded an EC50 of less than 1000 nM.

For the compound `Cn1cc(C#Cc2ccc(NC(=O)[C@@H]3COCCN3C(=O)[C@H](NC(=O)N3CCOCC3)c3ccccc3)cc2)c(-c2cc(Cl)ccc2O)n1` [Example 17], in series [8], the CC50 at 72 h is more than 33300 nM. The same compound gave an EC50 in series [9] (GETYPE1A) of less than 1000 nM.

Regarding `Cn1cc(C#Cc2ccc(NC(=O)[C@@H]3COCCN3C(=O)[C@H](NC(=O)NC(C)(C)C)c3ccccc3)cc2)c(-c2cc(Cl)ccc2O)n1` [Compound 53], the concentration giving a half-maximal response (EC50) in series [2] and in [3] was less than 1000 nM each time. For the same compound, the “EC50 Luc-neo-ET-Y2065H/EC50 Luc-neo-ET” value in [6] was 71. Besides, the CC50 at 72 h in [7] was 10000 to 100000 nM.

For `Cn1cc(C#Cc2ccc(NC(=O)[C@@H]3COCCN3C(=O)[C@H](NC(=O)N3CCC3)c3ccccc3)cc2)c(-c2cc(Cl)ccc2O)n1` [Compound 10], the CC50 at 72 h in series [8] was more than 33300 nM. This compound also yielded an EC50 in [9] of less than 1000 nM.

Turning to `COc1ccc2c(O[C@@H]3C[C@H]4C(=O)N[C@]5(C(=O)O)C[C@H]5/C=C\CCCCC[C@H](NC(=O)OC5CCCC5)C(=O)N4C3)cc(-c3csc(NC(C)C)n3)nc2c1` [BILN 2061, reference compound], the “EC50 Resistant Replicon/EC50 Wild Type Replicon” value in [1] is listed as 0.656.

For the compound `Cn1nccc1C(=O)N[C@@H](C(=O)N1CCOC[C@H]1C(=O)Nc1ccc(C#Cc2cn(CCC#N)nc2-c2cc(Cl)ccc2O)cc1)c1ccccc1` [Compound 1], in series [8], the CC50 at 72 h is more than 33300 nM. The compound also yielded a half-maximal effective concentration (EC50) in series [9] of less than 1000 nM.

Turning to `COC(=O)C1CCCN1C(=O)N[C@@H](C(=O)N1CCOC[C@H]1C(=O)Nc1ccc(C#Cc2cn(CCC#N)nc2-c2cc(Cl)ccc2O)cc1)c1ccccc1` (stereo partly shown) [Compound 14], the half-maximal cytotoxic concentration (CC50) at 72 h in series [8] was more than 33300 nM. The compound further came in with an EC50 in series [9] of less than 1000 nM.
